# PMC8045006 (Heliyon, 2021)
# Entries after “also recorded” stand apart in the source; their conditions may differ. Read-outs that look alike come from different tables or passages of the source.
# Assays:
# [1] = target: T1, Electrical (Torpedo californica) AChE (type VI-S) (Electrophorus electricus, UniProt O42275); assay: biochemical; type: biochemical
# T1 construct: purchased Sigma-Aldrich (Steinheim, Germany) type VI-S
# Experimental: (§1) Fluka provided potassium hydroxide, sodium hydrogen carbonate, potassium dihydrogen phosphate, and dipotassium hydrogen phosphate. Sigma-Aldrich (Steinheim, Germany) provided BuChE (E.C.3.1.1.8, from equine serum), Electrical ([…]) AChE (type VI-S), acetylthiocholine iodide, 5,5⸍-dithiobis [2-nitrobenzoic acid]
# (§2) In order to set the derivatives’ stock solutions, they were dissolved in the dimethyl sulfoxide (DMSO). Then, we diluted them in the absolute ethanol for obtaining 3 varying concentrations for assay. The experiments were done in triplicate for each concentration. The assay solution included […], […] of phosphate buffer (0.1M, pH = 8), […] of 5 IU/mL butryl cholinesterase solution, and […] of inhibitor. Afterwards, the product was pre-incubated at 25 ᵒC for 10 min. Then, […] of butyrylthiocholine iodide was added as the substrate to the 24 wells for starting the reaction. […] For justifying non-enzymatic reaction, we conducted assays with a blank having all components except ButChE.
# Moreover, AChE took the same assay for obtaining the derivatives’ anti-AChE activity.
# [2] = target: T2, BuChE (E.C.3.1.1.8, from equine serum) (Equus caballus, UniProt P81908); assay: biochemical; type: biochemical
# T2 construct: BuChE (E.C.3.1.1.8, from equine serum); purchased Sigma-Aldrich (Steinheim, Germany); host or cells: equine serum
# Experimental: as §1
# as §2, with “ButChE. […]” for “ButChE.”
# [3] = Ellman's method, average ±SD, triplicate, read-out: AChE Inhibition [IC50 (μM)]
# [4] = Ellman's method, average ±SD, triplicate, read-out: BuChE Inhibition [IC50 (μM)]
# [5] = read-out: AChE Inhibition [IC50 (μM)]
# [6] = read-out: BuChE Inhibition [IC50 (μM)]
# T2 sequence (P81908 whole entry): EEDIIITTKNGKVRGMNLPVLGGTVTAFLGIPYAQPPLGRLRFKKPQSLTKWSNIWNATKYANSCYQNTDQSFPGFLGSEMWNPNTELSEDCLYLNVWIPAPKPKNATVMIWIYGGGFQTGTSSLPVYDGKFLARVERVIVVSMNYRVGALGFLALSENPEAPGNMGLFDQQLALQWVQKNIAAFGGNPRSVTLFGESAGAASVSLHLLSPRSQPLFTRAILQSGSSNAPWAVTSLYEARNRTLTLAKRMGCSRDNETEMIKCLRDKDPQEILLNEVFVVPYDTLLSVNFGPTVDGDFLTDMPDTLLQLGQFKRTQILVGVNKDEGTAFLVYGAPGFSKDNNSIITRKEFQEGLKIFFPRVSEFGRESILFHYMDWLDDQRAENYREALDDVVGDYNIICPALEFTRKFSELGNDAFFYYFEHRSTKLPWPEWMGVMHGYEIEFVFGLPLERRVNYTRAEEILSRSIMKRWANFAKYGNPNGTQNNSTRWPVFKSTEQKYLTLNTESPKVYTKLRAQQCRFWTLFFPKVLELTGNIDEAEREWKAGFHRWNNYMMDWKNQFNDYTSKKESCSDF
# T1 sequence (O42275 24-633): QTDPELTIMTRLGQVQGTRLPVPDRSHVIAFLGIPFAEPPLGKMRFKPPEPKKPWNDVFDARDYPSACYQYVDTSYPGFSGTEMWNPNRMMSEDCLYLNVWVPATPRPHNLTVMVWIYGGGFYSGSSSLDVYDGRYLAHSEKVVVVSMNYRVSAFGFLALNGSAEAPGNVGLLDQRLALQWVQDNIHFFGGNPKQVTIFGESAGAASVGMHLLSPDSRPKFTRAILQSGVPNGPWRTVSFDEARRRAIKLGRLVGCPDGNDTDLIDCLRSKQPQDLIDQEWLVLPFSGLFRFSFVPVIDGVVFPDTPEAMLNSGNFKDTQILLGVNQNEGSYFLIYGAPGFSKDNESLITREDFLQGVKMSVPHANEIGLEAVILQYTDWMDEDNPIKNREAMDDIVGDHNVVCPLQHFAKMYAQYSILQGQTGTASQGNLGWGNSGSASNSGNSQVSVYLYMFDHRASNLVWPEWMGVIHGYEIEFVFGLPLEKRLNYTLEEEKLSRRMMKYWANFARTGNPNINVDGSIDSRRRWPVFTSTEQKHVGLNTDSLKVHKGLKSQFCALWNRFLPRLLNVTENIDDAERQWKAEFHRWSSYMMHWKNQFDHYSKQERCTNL
Compound,"IC50 [1, 3]","IC50 [2, 4]",other results
"O=c1c2ccccc2ncn1Cc1ccc[n+](Cc2cccc(Br)c2)c1 [BOP-1, 1-(3-Bromobenzyl)-3-((4-oxoquinazolin-3(4H)-yl)methyl) pyridin-1-ium bromide]",5.9 ± 0.07 µM,,IC50 [2]: 6.76 ± 0.04 µM
"O=c1c2ccccc2ncn1Cc1ccc[n+](Cc2ccc(Cl)cc2)c1 [BOP-2, 1-(4-Chlorobenzyl)-3-((4-oxoquinazolin-3(4H)-yl)methyl) pyridin-1-ium chloride]",47.1 ± 0.48 µM,29 ± 0.43 µM,
"O=c1c2ccccc2ncn1Cc1ccc[n+](Cc2ccc(F)cc2)c1 [BOP-3, 1-(4-Flourobenzyl)-3-((4-oxoquinazolin-3(4H)-yl)methyl) pyridin-1-ium chloride]",,,"IC50 [1, 5]: > 100 µM; IC50 [2, 6]: 70.43 ± 0.41 µM"
"N#Cc1ccc(C[n+]2cccc(Cn3cnc4ccccc4c3=O)c2)cc1 [BOP-4, 1-(4-Cyanobenzyl)-3-((4-oxoquinazolin-3(4H)-yl)methyl) pyridin-1-ium bromide]",> 100 µM,> 100 µM,
"O=c1c2ccccc2ncn1Cc1ccc[n+](Cc2ccccc2)c1 [BOP-5, 1-Benzyl-3-((4-oxoquinazolin-3(4H)-yl)methyl) pyridin-1-ium bromide]",41.2 ± 0.62 µM,12.63 ± 0.11 µM,
"COc1cc2ncn(Cc3ccc[n+](Cc4cccc(Br)c4)c3)c(=O)c2cc1OC [BOP-6, 1-(3-Bromobenzyl)-3-((6,7-dimethoxy-4-oxoquinazolin-3(4H)-yl)methyl) pyridin-1-ium bromide]",6.77 ± 0.24 µM,8.77 ± 0.11 µM,
"COc1cc2ncn(Cc3ccc[n+](Cc4ccc(F)cc4)c3)c(=O)c2cc1OC [BOP-7, 1-(4-Flourobenzyl)-3-((6,7-dimethoxy-4-oxoquinazolin-3(4H)-yl)methyl) pyridin-1-ium chloride]",,,"IC50 [1, 5]: 21.92 ± 0.2 µM; IC50 [2, 6]: > 100 µM"
"COc1cc2ncn(Cc3ccc[n+](Cc4ccc(Cl)cc4)c3)c(=O)c2cc1OC.[Cl-] [BOP-8, 1-(4-Chlorobenzyl)-3-((6,7-dimethoxy-4-oxoquinazolin-3(4H)-yl)methyl) pyridin-1-ium chloride]",,> 100 µM,IC50 [1]: 1.11 ± 0.09 µM; BuChE inhibition (result in words) ([2]; Ellman's method): no inhibitory activity; also recorded: no inhibition
"COc1cc2ncn(Cc3ccc[n+](Cc4ccc(C#N)cc4)c3)c(=O)c2cc1OC [BOP-9, 1-(4-Cyanobenzyl)-3-((6,7-dimethoxy-4-oxoquinazolin-3(4H)-yl)methyl) pyridin-1-ium bromide]",> 100 µM,> 100 µM,
"COc1cc2ncn(Cc3ccc[n+](Cc4ccccc4)c3)c(=O)c2cc1OC [BOP-10, 1-Benzyl-3-((6,7-dimethoxy-4-oxoquinazolin-3(4H)-yl)methyl) pyridin-1-ium bromide]",10.1 ± 0.28 µM,18.8 ± 0.34 µM,
